koff and kon data for 2 compounds are collected here from BindingDB's records for doi:10.1021/jm501395b (University of Strasburg, 2015).

Assay [1] addresses T1, Oxytocin receptor (Homo sapiens, UniProt P30559).
T1 sequence (P30559 whole entry): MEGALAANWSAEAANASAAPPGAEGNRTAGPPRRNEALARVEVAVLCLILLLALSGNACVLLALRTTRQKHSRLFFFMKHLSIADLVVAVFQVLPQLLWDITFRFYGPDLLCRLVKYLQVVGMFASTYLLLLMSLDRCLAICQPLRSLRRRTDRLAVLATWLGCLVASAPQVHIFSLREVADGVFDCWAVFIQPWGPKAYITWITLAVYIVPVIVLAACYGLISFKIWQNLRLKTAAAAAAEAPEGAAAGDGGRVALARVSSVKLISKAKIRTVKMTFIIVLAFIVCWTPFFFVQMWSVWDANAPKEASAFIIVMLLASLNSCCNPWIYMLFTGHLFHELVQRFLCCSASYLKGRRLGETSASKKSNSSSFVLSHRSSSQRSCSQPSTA
In words: Binding affinity to SNAP-tagged oxytocin receptor (unknown origin) expressed in HEK293 cells assessed as dissociation constant after 5 to 120 mins by TR-FRET assay.

Assay [2] deals with T1, Oxytocin receptor. Put plainly: Binding affinity to SNAP-tagged oxytocin receptor (unknown origin) expressed in HEK293 cells assessed as association constant after 5 to 120 mins by TR-FRET assay. As to conditions: read-out: kon (M-1-s-1).

`COc1ccc(-n2c(COCCOCCOCCOCCNC(=O)CCCCCNC(=O)c3ccc(-c4c5ccc(=O)cc-5oc5cc(O)ccc45)c(C(=O)O)c3)nnc2N2CC(Oc3ccc(F)cc3Cl)C2)cn1`: in assay [1], the koff – broadly, the rate constant with which the complex falls apart – was determined as 0.000315 s⁻¹. In assay [2], the kon (commonly the second-order rate constant of association) was 59500 M⁻¹ s⁻¹.
Regarding `CCN1\C(=C/C=C/C=C/C2=[N+](CC)c3cc(S(=O)(=O)[O-])ccc3C2(C)C)C(C)(CCCC(=O)NCCOCCOCCOCCOCc2nnc(N3CC(Oc4ccc(F)cc4Cl)C3)n2-c2ccc(OC)nc2)c2cc(S(=O)(=O)O)ccc21` (centres undefined), in assay [1], the koff is 0.000182 s⁻¹. For the same compound, the kon in assay [2] was 67200 M⁻¹ s⁻¹.
